The text below walks through data of patent publication US11034980B2, “Microbial engineering for the production of isoprenoids” (Massachusetts Institute of Technology, priority 2018, dated 2021).

One assay addresses T1, Taxadiene Synthase (TDS) (Taxus brevifolia, UniProt Q41594).
T1 construct: truncated first 60 amino acids, methionine added; made in house; host or cells: E. coli BL21 (DE3)
T1 sequence (Q41594 61-862 limits assumed): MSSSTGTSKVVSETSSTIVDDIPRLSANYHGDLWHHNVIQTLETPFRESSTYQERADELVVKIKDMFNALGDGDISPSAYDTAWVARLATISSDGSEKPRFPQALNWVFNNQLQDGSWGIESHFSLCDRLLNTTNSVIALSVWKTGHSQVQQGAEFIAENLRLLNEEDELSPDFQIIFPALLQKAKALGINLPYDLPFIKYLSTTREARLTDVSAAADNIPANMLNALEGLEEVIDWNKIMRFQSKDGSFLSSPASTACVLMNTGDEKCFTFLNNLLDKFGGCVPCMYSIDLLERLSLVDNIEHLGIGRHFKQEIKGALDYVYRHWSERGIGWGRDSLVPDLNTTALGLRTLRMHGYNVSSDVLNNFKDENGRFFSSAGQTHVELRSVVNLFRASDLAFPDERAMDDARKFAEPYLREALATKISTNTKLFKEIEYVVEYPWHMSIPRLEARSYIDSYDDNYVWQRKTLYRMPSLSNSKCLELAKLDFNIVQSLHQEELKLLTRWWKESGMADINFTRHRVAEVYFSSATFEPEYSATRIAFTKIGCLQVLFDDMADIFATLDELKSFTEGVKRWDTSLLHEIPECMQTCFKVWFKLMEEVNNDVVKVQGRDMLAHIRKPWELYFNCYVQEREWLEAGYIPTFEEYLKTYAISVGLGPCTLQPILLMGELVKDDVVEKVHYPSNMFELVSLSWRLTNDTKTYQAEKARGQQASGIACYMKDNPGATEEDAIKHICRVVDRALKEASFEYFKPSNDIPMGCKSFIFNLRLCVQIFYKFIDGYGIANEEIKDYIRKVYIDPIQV
Put plainly: TDS activity by pyrophosphate assay. The class given is biochemical. The settings on record: 30° C., pH 7.4.

For assay [1], the target named is T2, isopentenyl phosphate kinase (IPK) (Arabidopsis thaliana, UniProt Q8H1F7).
T2 construct: Arabidopsis thaliana (AAN12957.1), codon optimized; made in house; host or cells: E. coli BL21 (DE3)
T2 sequence (Q8H1F7 1-332): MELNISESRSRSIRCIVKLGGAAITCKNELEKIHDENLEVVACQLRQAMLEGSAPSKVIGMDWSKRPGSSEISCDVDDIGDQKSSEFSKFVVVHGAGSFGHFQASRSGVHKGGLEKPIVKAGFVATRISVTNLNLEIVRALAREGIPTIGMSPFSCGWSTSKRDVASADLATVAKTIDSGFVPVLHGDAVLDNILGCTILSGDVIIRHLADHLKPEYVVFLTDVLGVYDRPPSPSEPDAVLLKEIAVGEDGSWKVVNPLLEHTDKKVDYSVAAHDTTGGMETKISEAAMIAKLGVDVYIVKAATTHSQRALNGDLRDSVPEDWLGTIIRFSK
Put plainly: IPK kinetics by ATP consumption, PK-LDH coupled NADH assay. In kind it is biochemical. The settings on record: 10 mM ATP, 30° C., pH 7.4. The procedure:
A single colony from each strain containing one plasmid for the expression of a single enzyme was inoculated into 5 mL of sterile LB media (BD Sciences) with kanamycin and grown overnight at 37° C. One milliliter was then inoculated into a 1 L flask containing 200 mL of sterile SOB media (AMERSCO) with kanamycin. The culture was grown at 30° C. until an optical density (OD) of 0.4-0.6 (λ=600 nm). At this point protein production was induced by the addition of IPTG for a final concentration of 0.1 mM and continued at 30° C. for 3 h. Cells were harvested by centrifugation at 3750 rpm in an Allegra X12R centrifuge (Beckman-Coulter). The supernatant was removed and the cell pellets were frozen at −20° C. until purification. Proteins were visualized by SDS-PAGE performed accordingly to the manufacturer's guidelines (Bio-rad). Gradient (4-20%) gels were purchased from Biorad, as were the Kaleidoscope pre-stained protein ladder, Laemmli 4× sample buffer, Tris-glycine-SDS buffer, and mini-protean electrophoresis chambers. Gels were stained using Instant-Blue (Expedeon). Protein concentrations were very roughly estimated from the gel using Image J (NIH) in order to determine an appropriate amount of resin for purification. Protein Purification All purification steps were performed in a single day on ice and in a cold room when possible. Cell pellets were thawed and resuspended in 30 mL of NPI-10 buffer (50 mM NaH2PO4, 300 mM NaCl, 10 mM imidazole, pH 8.0) and supplemented with 0.5 mM PMSF immediately prior to cell lysis. Cells were lysed by 2-3 passages through an EmulsiFlex-C5 high-pressure homogenizer (Avestin). Lysates were then centrifuged at 4 C for 15 min to remove cellular debris. The clarified lysate was loaded onto a Ni-NTA resin (Gold Bio, capacity 50 mg/mL) which was housed in a gravity column (Thermofisher) and was pre-equilibrated with 10 column volumes (CV) of NPI-10 buffer. The column was then washed with 10 CV of NPI-20 buffer (20 mM imidazole). The enzyme was then eluted from the column by 3 CV using NPI-250 buffer (250 mM imidazole). Enzymes were then exchanged into 50 mM Tris-HCl pH 7.5 using 10 kDa Microseps (Millipore) by centrifugation and repeated buffer exchanges until the imidazole was calculated to be under 1 mM. […] Enzyme concentration was determined using a bicinchoninic acid (BCA) assay kit from Pierce using bovine serum albumin as a standard (BSA). […] The kinetics for CK were previously determined as described. The kinetics for IPK were determined by ATP consumption using a pyruvate kinase (PK) lactate dehydrogenase (LDH) coupled assay (FIGS. 16A & 16B). […] NADH was made fresh each time and the appropriate concentration was determined by constructing a standard curve using a SpectraMax M3 and selecting the highest value in the linear range. […]

The target in another assay is T3, CK (Saccharomyces cerevisiae, UniProt P20485).
T3 construct: S. cerevisiae (AAA34499.1), codon optimized; made in house; host or cells: E. coli BL21 (DE3)
T3 sequence (P20485 1-582): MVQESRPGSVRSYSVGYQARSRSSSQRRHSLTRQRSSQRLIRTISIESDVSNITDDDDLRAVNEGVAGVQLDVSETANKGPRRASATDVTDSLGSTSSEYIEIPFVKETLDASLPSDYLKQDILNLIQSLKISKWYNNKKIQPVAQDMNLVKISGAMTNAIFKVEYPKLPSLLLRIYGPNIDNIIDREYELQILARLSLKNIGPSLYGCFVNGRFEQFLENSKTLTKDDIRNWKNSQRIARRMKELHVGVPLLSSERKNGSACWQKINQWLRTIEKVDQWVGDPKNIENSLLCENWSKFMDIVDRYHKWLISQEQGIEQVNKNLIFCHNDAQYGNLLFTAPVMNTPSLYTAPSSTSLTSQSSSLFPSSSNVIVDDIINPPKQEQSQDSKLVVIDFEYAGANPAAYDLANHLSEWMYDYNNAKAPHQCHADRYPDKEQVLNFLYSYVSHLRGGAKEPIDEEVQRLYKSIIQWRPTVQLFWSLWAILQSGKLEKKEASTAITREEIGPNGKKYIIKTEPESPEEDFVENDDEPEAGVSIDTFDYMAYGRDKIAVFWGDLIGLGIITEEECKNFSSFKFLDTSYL
Put plainly: Metabolic control analysis (lin-log elasticities) of multi-enzyme perturbation study. The settings on record: lin-log kinetics, 60 min, 5 mM isoprenol, 10 mM ATP. In kind it is biochemical.

A further assay concerns the target T4, IPK (Arabidopsis thaliana, UniProt Q8H1F7).
T4 construct: Arabidopsis thaliana (AAN12957.1), codon optimized; made in house; host or cells: E. coli BL21 (DE3)
T4 sequence (Q8H1F7 1-332): T2 sequence (Q8H1F7 1-332)
Described as above. Conditions: lin-log kinetics, 60 min, 5 mM isoprenol, 10 mM ATP. The class given is biochemical.

Assay [2] has as its target Geranylgeranyl pyrophosphate synthase (GGPPS) (Taxus canadensis, UniProt Q9ZPM3). Kind of assay: GGPPS activity by pyrophosphate formation (EnzChek pyrophosphate assay). Conditions: reaction IPP + FPP; IPP varied with FPP held at 100 μM. In kind it is biochemical. As for the experimental part: A single colony from each strain containing one plasmid for the expression of a single enzyme was inoculated into 5 mL of sterile LB media (BD Sciences) with kanamycin and grown overnight at 37° C. One milliliter was then inoculated into a 1 L flask containing 200 mL of sterile SOB media (AMERSCO) with kanamycin. The culture was grown at 30° C. until an optical density (OD) of 0.4-0.6 (λ=600 nm). At this point protein production was induced by the addition of IPTG for a final concentration of 0.1 mM and continued at 30° C. for 3 h. Cells were harvested by centrifugation at 3750 rpm in an Allegra X12R centrifuge (Beckman-Coulter). […] Enzymes were then exchanged into 50 mM Tris-HCl pH 7.5 using 10 kDa Microseps (Millipore) by centrifugation and repeated buffer exchanges until the imidazole was calculated to be under 1 mM. […] Enzyme concentration was determined using a bicinchoninic acid (BCA) assay kit from Pierce using bovine serum albumin as a standard (BSA). […] The kinetics for CK were previously determined as described. The kinetics for IPK were determined by ATP consumption using a pyruvate kinase (PK) lactate dehydrogenase (LDH) coupled assay (FIGS. 16A & 16B). […] NADH was made fresh each time and the appropriate concentration was determined by constructing a standard curve using a SpectraMax M3 and selecting the highest value in the linear range. […]

The target in assay [3] is Farnesyl pyrophosphate synthase (IspA) (Escherichia coli, UniProt P22939). Conditions: Ref Ku et al., 2005, Weaver et al., 2015, cited from earlier work.
The test system of assay [4] is Geranylgeranyl pyrophosphate synthase (GGPPS). The settings on record: reported elsewhere (Hefner et al., 1998); cited from earlier work.

Where two headings read alike, the source gives them in different places.

Farnesyl pyrophosphate synthase (IspA), sequence (P22939 whole entry): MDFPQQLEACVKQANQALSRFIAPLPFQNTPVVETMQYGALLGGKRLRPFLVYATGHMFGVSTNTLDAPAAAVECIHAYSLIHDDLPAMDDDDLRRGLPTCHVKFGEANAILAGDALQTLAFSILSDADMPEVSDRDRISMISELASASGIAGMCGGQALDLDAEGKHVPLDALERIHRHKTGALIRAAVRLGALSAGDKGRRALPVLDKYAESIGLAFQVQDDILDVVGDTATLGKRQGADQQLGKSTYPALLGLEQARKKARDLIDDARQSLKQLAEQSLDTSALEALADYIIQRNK
Geranylgeranyl pyrophosphate synthase (GGPPS) (Taxus canadensis, UniProt Q9ZPM3), sequence (Q9ZPM3 entry or part of it): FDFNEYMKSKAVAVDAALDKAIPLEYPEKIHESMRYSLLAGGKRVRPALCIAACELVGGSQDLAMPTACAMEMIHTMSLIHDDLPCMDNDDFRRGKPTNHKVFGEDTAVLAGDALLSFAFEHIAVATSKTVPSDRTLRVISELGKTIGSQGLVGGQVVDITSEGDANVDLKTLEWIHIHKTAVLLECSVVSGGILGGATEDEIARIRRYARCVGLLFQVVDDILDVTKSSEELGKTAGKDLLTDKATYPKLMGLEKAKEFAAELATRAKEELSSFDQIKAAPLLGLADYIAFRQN
Procedure for CK: In order to identify a PSS, an in vitro reaction was run, using the optimal enzyme concentrations, as predicted from the initial perturbation study, using a “main interactions only” linear regression model. A time profile of metabolic intermediate concentrations was constructed (FIG. 32). […] The reaction was stopped at 60 min in the repeat experiment.
[formula] where i represents the unit vector, v represents the relative flux compared to the reference state flux J^0, E^x0 represents the elasticity matrix for the metabolic intermediate concentrations (x^0) in relation to the enzyme concentration compared to the reference state as designed by e/e^0 and the relative intermediate metabolic concentrations compared to the reference state (x/x^0).
By applying this model to the data generated in the large perturbation study and alternating the designated reference state, 25 sets of elasticities were generated, using the maximum connectivity assumption to calculate the elasticity of every enzyme for each measured metabolite.

As for `CC(C)=CCC/C(C)=C/CC/C(C)=C/CC/C(C)=C/COP(=O)(O)OP(=O)(O)O` [GGPP, geranylgeranyl diphosphate], at Taxadiene Synthase (TDS), the Km – broadly, the concentration of substrate that gives half-maximal velocity – came out at 43 µM and the kcat is listed as 23.1 S^−1.

With `C=C(C)CCOP(=O)(O)O` [IP, isopentenyl monophosphate], in assay [1], the Km was found to be 21.7 µM and the kcat amounted to 45.5 S^−1. For the same molecule, the “effect on CK activity (elasticity)” value on CK is given as “slightly inhibitory”. Besides, the “effect on IPK activity (elasticity)” value at IPK is recorded as “stimulatory”.

In the case of `C=C(C)CCO[P@@](=O)(O)OP(=O)(O)O` [IPP, isopentenyl pyrophosphate], the Km in assay [2] is 13.5 µM; in assay [3] (reaction IPP + DMAPP), 29.3 µM; in assay [3] (reaction IPP + GPP), 5.5 µM; in assay [4] it was 6 µM.
